Data taken from patent US8802597B2, “Herbicidal pyrimidines” (E I du Pont de Nemours and Company, priority 2003, dated 2014).

Tests used:
Assay in all cases: Test C pre/postemergence
Format in all cases: in vivo
Conditions in all cases: Postemergence
[1] = system: woolly cupgrass (Eriochloa villosa)
Method in brief: (§1)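 Greenhouse pot test: seeds treated preemergence, or plants at 2–18 cm (1- to 4-leaf stage) treated postemergence, with compound in non-phytotoxic solvent plus surfactant. Visual rating versus untreated controls after 12–14 days, scale 0 (no effect) to 100 (complete control); dash means not tested.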

[2] = system: yellow nutsedge (Cyperus esculentus)
Method in brief: as §1

[3] = system: giant foxtail (Setaria faberii)
Method in brief: as §1

[4] = system: crabgrass (Digitaria sanguinalis)
Method in brief: as §1

kochia (Kochia scoparia) = system: kochia (Kochia scoparia)
Method in brief: as §1

[5] = system: velvetleaf (Abutilon theophrasti)
Method in brief: as §1

[6] = system: Surinam grass (Brachiaria decumbens)
Method in brief: as §1

[7] = system: morningglory (Ipomoea coccinea)
Method in brief: as §1

[8] = system: johnsongrass (Sorghum halepense)
Method in brief: as §1

[9] = system: cocklebur (Xanthium strumarium)
Method in brief: as §1

[10] = system: pigweed (Amaranthus retroflexus)
Method in brief: as §1

[11] = 125 g ai/ha, scale 0 to 100 (0 no effect, 100 complete control)

CCOC(=O)c1nc(C2CC2)nc(NN)c1Br [Compound 42]
pest or weed control at 31 g/ha ([1]; Eriochloa villosa, post-emergence, 31 g ai/ha, read-out: Plant response rating (scale of 0 to 100), Cupgrass, Woolly): 0% | pest or weed control at 62 g/ha ([1]; Eriochloa villosa, post-emergence, 62 g ai/ha, scale 0 to 100 (0 no effect, 100 complete control), read-out: Cupgrass, Woolly plant response rating): 0% | pest or weed control at 125 g/ha ([1]; Eriochloa villosa, post-emergence, 125 g ai/ha, scale 0 to 100 (0 no effect, 100 complete control), read-out: Cupgrass, Woolly plant response rating): 0% | pest or weed control at 250 g/ha ([1]; Eriochloa villosa, post-emergence, 250 g ai/ha, scale 0 to 100, read-out: Plant response rating, Cupgrass, Woolly): 5% | pest or weed control at 31 g/ha ([2]; Cyperus, post-emergence, 31 g ai/ha, read-out: Plant response rating (scale of 0 to 100), Nutsedge, Yellow): 0% | pest or weed control at 62 g/ha ([2]; Cyperus, post-emergence, 62 g ai/ha, scale 0 to 100 (0 no effect, 100 complete control), read-out: Nutsedge, Yellow plant response rating): 0% | pest or weed control at 125 g/ha ([2]; Cyperus, post-emergence, 125 g ai/ha, scale 0 to 100 (0 no effect, 100 complete control), read-out: Nutsedge, Yellow plant response rating): 0% | pest or weed control at 250 g/ha ([2]; Cyperus, post-emergence, 250 g ai/ha, scale 0 to 100, read-out: Plant response rating, Nutsedge, Yellow): 0% | pest or weed control at 125 g/ha ([3]; Setaria faberi, post-emergence, 125 g ai/ha, scale 0 to 100 (0 no effect, 100 complete control), read-out: Foxtail, Giant plant response rating): 0% | pest or weed control at 31 g/ha ([3]; Setaria faberi, post-emergence, 31 g ai/ha, read-out: Plant response rating (scale of 0 to 100), Foxtail, Giant): 0% | pest or weed control at 62 g/ha ([3]; Setaria faberi, post-emergence, 62 g ai/ha, scale 0 to 100 (0 no effect, 100 complete control), read-out: Foxtail, Giant plant response rating): 0% | pest or weed control at 250 g/ha ([3]; Setaria faberi, post-emergence, 250 g ai/ha, scale 0 to 100, read-out: Plant response rating, Foxtail, Giant): 0% | pest or weed control at 31 g/ha ([4]; Digitaria sanguinalis, post-emergence, 31 g ai/ha, read-out: Plant response rating (scale of 0 to 100), Crabgrass): 0% | pest or weed control at 62 g/ha ([4]; Digitaria sanguinalis, post-emergence, 62 g ai/ha, scale 0 to 100 (0 no effect, 100 complete control), read-out: Crabgrass plant response rating): 0% | pest or weed control at 125 g/ha ([4]; Digitaria sanguinalis, post-emergence, 125 g ai/ha, scale 0 to 100 (0 no effect, 100 complete control), read-out: Crabgrass plant response rating): 0% | pest or weed control at 250 g/ha ([4]; Digitaria sanguinalis, post-emergence, 250 g ai/ha, scale 0 to 100, read-out: Plant response rating, Crabgrass): 0% | pest or weed control at 31 g/ha (kochia (Kochia scoparia); Bassia scoparia, post-emergence, 31 g ai/ha, read-out: Plant response rating (scale of 0 to 100), Kochia): 5% | pest or weed control at 62 g/ha (kochia (Kochia scoparia); Bassia scoparia, post-emergence, 62 g ai/ha, scale 0 to 100 (0 no effect, 100 complete control), read-out: Kochia plant response rating): 30% | pest or weed control at 125 g/ha (kochia (Kochia scoparia); Bassia scoparia, post-emergence, 125 g ai/ha, scale 0 to 100 (0 no effect, 100 complete control), read-out: Kochia plant response rating): 50% | pest or weed control at 250 g/ha (kochia (Kochia scoparia); Bassia scoparia, post-emergence, 250 g ai/ha, scale 0 to 100, read-out: Plant response rating, Kochia): 85% | pest or weed control at 31 g/ha ([5]; Abutilon theophrasti, post-emergence, 31 g ai/ha, read-out: Plant response rating (scale of 0 to 100), Velvetleaf): 0% | pest or weed control at 62 g/ha ([5]; Abutilon theophrasti, post-emergence, 62 g ai/ha, scale 0 to 100 (0 no effect, 100 complete control), read-out: Velvetleaf plant response rating): 0% | pest or weed control at 125 g/ha ([5]; Abutilon theophrasti, post-emergence, 125 g ai/ha, scale 0 to 100 (0 no effect, 100 complete control), read-out: Velvetleaf plant response rating): 0% | pest or weed control at 250 g/ha ([5]; Abutilon theophrasti, post-emergence, 250 g ai/ha, scale 0 to 100, read-out: Plant response rating, Velvetleaf): 20% | pest or weed control at 125 g/ha ([6]; Urochloa decumbens, post-emergence, 125 g ai/ha, scale 0 to 100 (0 no effect, 100 complete control), read-out: Surinam Grass plant response rating): 0% | pest or weed control at 31 g/ha ([6]; Urochloa decumbens, post-emergence, 31 g ai/ha, read-out: Plant response rating (scale of 0 to 100), Surinam Grass): 0% | pest or weed control at 62 g/ha ([6]; Urochloa decumbens, post-emergence, 62 g ai/ha, scale 0 to 100 (0 no effect, 100 complete control), read-out: Surinam Grass plant response rating): 0% | pest or weed control at 250 g/ha ([6]; Urochloa decumbens, post-emergence, 250 g ai/ha, scale 0 to 100, read-out: Plant response rating, Surinam Grass): 0% | pest or weed control at 31 g/ha ([7]; Ipomoea, post-emergence, 31 g ai/ha, read-out: Plant response rating (scale of 0 to 100), Morningglory): 0% | pest or weed control at 62 g/ha ([7]; Ipomoea, post-emergence, 62 g ai/ha, scale 0 to 100 (0 no effect, 100 complete control), read-out: Morningglory plant response rating): 50% | pest or weed control at 125 g/ha ([7]; Ipomoea, post-emergence, 125 g ai/ha, scale 0 to 100 (0 no effect, 100 complete control), read-out: Morningglory plant response rating): 80% | pest or weed control at 250 g/ha ([7]; Ipomoea, post-emergence, 250 g ai/ha, scale 0 to 100, read-out: Plant response rating, Morningglory): 85% | pest or weed control at 31 g/ha ([8]; Sorghum halepense, post-emergence, 31 g ai/ha, read-out: Plant response rating (scale of 0 to 100), Johnsongrass): 0% | pest or weed control at 62 g/ha ([8]; Sorghum halepense, post-emergence, 62 g ai/ha, scale 0 to 100 (0 no effect, 100 complete control), read-out: Johnsongrass plant response rating): 0% | pest or weed control at 125 g/ha ([8]; Sorghum halepense, post-emergence, 125 g ai/ha, scale 0 to 100 (0 no effect, 100 complete control), read-out: Johnsongrass plant response rating): 0% | pest or weed control at 250 g/ha ([8]; Sorghum halepense, post-emergence, 250 g ai/ha, scale 0 to 100, read-out: Plant response rating, Johnsongrass): 10% | pest or weed control at 31 g/ha ([9]; Xanthium strumarium, post-emergence, 31 g ai/ha, read-out: Plant response rating (scale of 0 to 100), Cocklebur): 0% | pest or weed control at 62 g/ha ([9]; Xanthium strumarium, post-emergence, 62 g ai/ha, scale 0 to 100 (0 no effect, 100 complete control), read-out: Cocklebur plant response rating): 0% | pest or weed control at 125 g/ha ([9]; Xanthium strumarium, post-emergence, 125 g ai/ha, scale 0 to 100 (0 no effect, 100 complete control), read-out: Cocklebur plant response rating): 5% | pest or weed control at 250 g/ha ([9]; Xanthium strumarium, post-emergence, 250 g ai/ha, scale 0 to 100, read-out: Plant response rating, Cocklebur): 20% | pest or weed control at 31 g/ha ([10]; Amaranthus retroflexus, post-emergence, 31 g ai/ha, read-out: Plant response rating (scale of 0 to 100), Pigweed): 10% | pest or weed control at 62 g/ha ([10]; Amaranthus retroflexus, post-emergence, 62 g ai/ha, scale 0 to 100 (0 no effect, 100 complete control), read-out: Pigweed plant response rating): 10% | pest or weed control at 125 g/ha ([10]; Amaranthus retroflexus, post-emergence, 125 g ai/ha, scale 0 to 100 (0 no effect, 100 complete control), read-out: Pigweed plant response rating): 20% | pest or weed control at 250 g/ha ([10]; Amaranthus retroflexus, post-emergence, 250 g ai/ha, scale 0 to 100, read-out: Plant response rating, Pigweed): 30%

Nc1nc(-c2ccc(Cl)cc2)nc(C(=O)O)c1Br [Compound 88]
Plant response rating (scale of 0 to 100), Cupgrass, Woolly ([1]; 31 g ai/ha): 70 | Plant response rating (scale of 0 to 100), Cupgrass, Woolly ([1]; 62 g ai/ha): 75 | Cupgrass, Woolly plant response rating [1, 11]: 85 | Plant response rating, Cupgrass, Woolly ([1]; 250 g ai/ha, scale 0 to 100): 85 | Plant response rating (scale of 0 to 100), Nutsedge, Yellow ([2]; 31 g ai/ha): 40 | Plant response rating (scale of 0 to 100), Nutsedge, Yellow ([2]; 62 g ai/ha): 45 | Nutsedge, Yellow plant response rating [2, 11]: 55 | Plant response rating, Nutsedge, Yellow ([2]; 250 g ai/ha, scale 0 to 100): 75 | Plant response rating (scale of 0 to 100), Foxtail, Giant ([3]; 31 g ai/ha): 55 | Plant response rating (scale of 0 to 100), Foxtail, Giant ([3]; 62 g ai/ha): 75 | Foxtail, Giant plant response rating [3, 11]: 80 | Plant response rating, Foxtail, Giant ([3]; 250 g ai/ha, scale 0 to 100): 85 | Plant response rating (scale of 0 to 100), Crabgrass ([4]; 31 g ai/ha): 75 | Plant response rating (scale of 0 to 100), Crabgrass ([4]; 62 g ai/ha): 80 | Crabgrass plant response rating [4, 11]: 80 | Plant response rating, Crabgrass ([4]; 250 g ai/ha, scale 0 to 100): 85 | Plant response rating (scale of 0 to 100), Kochia (kochia (Kochia scoparia); 31 g ai/ha): 85 | Plant response rating (scale of 0 to 100), Kochia (kochia (Kochia scoparia); 62 g ai/ha): 95 | Kochia plant response rating (kochia (Kochia scoparia); [11]): 95 | Plant response rating, Kochia (kochia (Kochia scoparia); 250 g ai/ha, scale 0 to 100): 95 | Plant response rating (scale of 0 to 100), Velvetleaf ([5]; 31 g ai/ha): 85 | Plant response rating (scale of 0 to 100), Velvetleaf ([5]; 62 g ai/ha): 90 | Velvetleaf plant response rating [5, 11]: 95 | Plant response rating, Velvetleaf ([5]; 250 g ai/ha, scale 0 to 100): 95 | Plant response rating (scale of 0 to 100), Surinam Grass ([6]; 31 g ai/ha): 45 | Plant response rating (scale of 0 to 100), Surinam Grass ([6]; 62 g ai/ha): 60 | Surinam Grass plant response rating [6, 11]: 80 | Plant response rating, Surinam Grass ([6]; 250 g ai/ha, scale 0 to 100): 85 | Plant response rating (scale of 0 to 100), Morningglory ([7]; 31 g ai/ha): 60 | Morningglory plant response rating [7, 11]: 85 | Plant response rating, Morningglory ([7]; 250 g ai/ha, scale 0 to 100): 85 | Plant response rating (scale of 0 to 100), Johnsongrass ([8]; 31 g ai/ha): 30 | Plant response rating (scale of 0 to 100), Johnsongrass ([8]; 62 g ai/ha): 45 | Johnsongrass plant response rating [8, 11]: 75 | Plant response rating, Johnsongrass ([8]; 250 g ai/ha, scale 0 to 100): 85 | Plant response rating (scale of 0 to 100), Cocklebur ([9]; 31 g ai/ha): 90 | Plant response rating (scale of 0 to 100), Cocklebur ([9]; 62 g ai/ha): 90 | Cocklebur plant response rating [9, 11]: 90 | Plant response rating, Cocklebur ([9]; 250 g ai/ha, scale 0 to 100): 90 | Plant response rating (scale of 0 to 100), Pigweed ([10]; 31 g ai/ha): 95 | Plant response rating (scale of 0 to 100), Pigweed ([10]; 62 g ai/ha): 100 | Pigweed plant response rating [10, 11]: 100 | Plant response rating, Pigweed ([10]; 250 g ai/ha, scale 0 to 100): 100
